Values of other authors, collected in patent US7265145B2, “Substituted piperidines and pyrrolidines as calcium sensing receptor modulators and method” (Bristol-Myers Squibb Company, priority 2003, dated 2007).

Experiments:
[1] = OVX rats; oral administration; in the presence of an anti-resorptive agent
[2] = intravenous bolus injection
[3] = postmenopausal women; placebo-controlled trial

## CC(C)(Cc1ccc2ccccc2c1)NC[C@@H](O)COc1cccc(Cl)c1C#N [NPS-2143]
[1]
  bone mass: increase in bone mass
[2]
  serum PTH: transient increase in serum PTH

## PTH peptide fragment (1-34): PTH peptide fragment (1-34) of parathyroid hormone, stimulator of bone formation (SVSEIQLMHNLGKHLNSMERVEWLRKKLQDVHNF; Parathyroid hormone; UniProt P01270 32-65, looked up, fragment)
[3]
  reduce the risk of non-traumatic, non-spine fractures: 54%
  reduce the risk of spine fractures: 65%
